Test [1] addresses T1, DCN1 (DCUND1) protein PONY domain (Homo sapiens (Human), UniProt Q96GG9). The test can be described thus: Off-rate measurement of reversible covalent molecules (jump dilution TR-FRET with Cy5 probe). Conditions: binding mode from off-rate measurement. Here is the method: A TR-FRET assay was performed to classify the compounds as an irreversible covalent binder, a reversible covalent binder or a reversible binder.
An assay to measure the off-rate of reversible covalent molecules was developed. A typical covalent compound is assumed to stay bound to a protein for at least the life of that protein in the cell. In reality, there is a range of how long a covalent compounds remains bound before a reverse reaction takes place. Thus, some covalent bonds can be labeled as reversible as their reverse reaction takes place in a measurable amount of time under physiological conditions. The assay capitalizes on the range of covalent binders by using a high affinity covalent binder as a probe to displace the more reversible binders in an adaptation of the jump dilution method.
In this version of the jump dilution method, the increase in covalent probe binding over time was measured through a TR-FRET reaction between the covalent probe and the biotinylated target protein.
(§1) The recombinant form of the DCN1 (DCUND1) protein PONY domain was produced using an E. coli expression system at Viva Biotech (China). The DCN1 protein was biotinylated (EZ sulfo-NHS-LC-biotin; Thermofisher) for labeling with streptavidin terbium (Tb) cryptate in the reaction. This biotinylated protein was used in two forms of the TR-FRET assay as described below.
The off-rate measurement is executed in two steps based on the jump dilution method. […] The greatest dilution allowed within the constraints of the assay was chosen. These factors allow a competitive advantage for the covalent probe to replace the test compound when that compound releases from the target protein. The actual measure is the rate of increased TR-FRET signal as the covalent probe replaces the test compound over time. […] The resulting time dependent curve of the TR-FRET signal is fit to the following equation: Y=Y0+(Plateau−Y0)*(1−exp(−K*x))
K is the rate constant (1/unit of time). The residence time is defined as the inverse of K, the rate constant. The half-life is calculated as ln(2)/K.

Test [2] deals with T1, DCN1 (DCUND1) protein PONY domain. The test can be described thus: TR-FRET assay (binding to DCN-1, displacement of FAM-labeled probe). In short, it runs like this:
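Compounds read at 1, 5 and 24 h, 0.1% final DMSO, by TR-FRET between terbium-streptavidin on biotinylated DCN1 PONY domain (E. coli) and a FAM-tagged non-covalent inhibitor probe. Two setups used, 5 nM protein with 20 nM labelled probe, or 0.31 nM protein with 100 nM labelled plus 800 nM unlabelled probe; buffer had TritonX and 200 mM NaCl. % activity relative to high (with probe) and low (without probe) controls.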
For orientation: Time-resolved FRET reads energy transfer from a long-lived donor to a nearby acceptor.

Test [3] shares this target. Description: TR-FRET with FAM probe (compound potency, potency of the Cy5 probe). Conditions: potency of the covalent Cy5 probe (P-1) to DCN1; read-out: Kd (EC50) of the Cy5 probe. In kind it is binding.
Text: as §1
This version of the TR-FRET assay was used to measure compound potency to the target, specifically to measure the potency of the Cy5 probe (P-1). A non-covalent DCN1 inhibitor (Zhou et al., 2017) labeled with carboxyfluorescein (FAM) was used as the FRET acceptor probe. Displacement of the […], and thus decrease in the FRET signal, was indicative of compound activity on the target protein. Buffer conditions were optimized to enhance compound and protein stability (200 mM NaCl, 25 mM Tris, 0.5 mM DTT, 0.05% Tween20, 5% DMSO, 5% PEG-3350, pH 7.5) and concentrations of protein (0.31 nM) and probe (100 nM labeled, 800 nM unlabeled) were optimized for detection of potent molecules. The TR-FRET ratio between Tb-DCN1 and the FAM-labeled probe was measured in a 384-well opti-plate (Perkin Elmer) using a plate reader (BMG) at 1, 5, and 24 hrs after treatment with compound. The ratio was normalized to the high (DCN1 and FAM-probe) and low (DCN1 and no probe) controls for a readout of % activity (=100*(x−low)/(high−low)).

The target of test [4] is DCN2 (DCUND2) protein PONY domain (Homo sapiens (Human), UniProt Q6PH85). The test can be described thus: DCN2 TR-FRET assay, measurement of Kinact/KI. In kind it is binding. Here is the method:
A TR-FRET Assay was performed to evaluate the ability of the compounds to bind DCN-2. The time resolved—Forster's resonance energy transfer (TR-FRET) assay was designed following the protocol established in (Scott et al., Nat Chem Biol. 2017 August; 13(8): 850-857). A recombinant form of the DCN2 (DCUND2) protein PONY domain was produced using an E. coli expression system at Viva Biotech China. The DCN2 protein was biotinylated (EZ sulfo-NHS-LC-biotin; Thermofisher) for labeling with 2.5 nM streptavidin terbium (Tb) cryptate in the reaction. The probe was changed to a non-covalent DCN1 inhibitor labeled with carboxyfluorescein (FAM; Zhou el al., Nat Commun. 2017; 8: 1150). Buffer conditions were modified to enhance protein stability by replacing TritonX with 0.05% Tween20 and increasing NaCl to 200 mM. […] The Kinact and KI measurements were taken to allow for continuous reads over 24 hrs. Plates were read every 5 min up to 1 hr, every 15 min up to 5 hr, and every hour up to 10 hours. Kinact and KI were calculated based on the following equations (Krippendorff B F, et al. Mechanism-based inhibition: deriving K(I) and k(inact) directly from time-dependent IC(50) values. J BiomolScreen. 2009; Mons E et al. A Comprehensive Guide for Assessing Covalent Inhibition in Enzymatic Assays Illustrated with Kinetic Simulations. […] The Kinact and KI values could be estimated from the tight curves of the IC50 values over time. [formula]

The subject of test [5] is Cullin-3 (CUL3) neddylation. Conditions: positive control, 1 μM; Zhou et al. Nature Comm. 2021; cited from earlier work.
The target of test [6] is DCN1 protein (Homo sapiens (Human), UniProt Q96GG9). The test can be described thus: Intact protein MS analysis with the RapidFire-TOF system (covalent adduct formation). As to conditions: 400 nM DCN1, incubated at room temperature for 3 hours. In kind it is binding. In short, it runs like this:
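Tag-free His-TEV-DCN1 expressed in E. coli at 400 nM in 25 mM Tris-HCl, 200 mM NaCl, 1 mM DTT, incubated with 11 compound concentrations at room temperature for 3 h unless otherwise specified. Quenched with 0.2% formic acid; intact-protein RapidFire Q-TOF MS, deconvoluted to detect parent and compound-adduct masses.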

Setting [7] is: 24 hr after treatment with compound, read-out: TR FRET IC50 24 hr.
The mark [8] stands for this setting: read-out: TR FRET IC50 1 hr, 1 hr after treatment with compound.
[9] abbreviates: TR FRET IC50 1 hr (nM), 1 hr after treatment with compound.

Consider 13 molecules from patent US12435087B2, “Modulators of DCN-1 and methods of use thereof” (Cellarity, Inc., priority 2023, dated 2025).

Like-named read-outs stand apart in the source and are kept apart here. Where only a bound is given, the exact number is not on record here.

In general, IC50 refers to the concentration at which inhibition is half-maximal. The term EC50 denotes the concentration giving half of the maximal effect. By Ki is commonly meant the dissociation constant of the complex between target and ligand, obtained from inhibition or displacement. A lower Ki goes with a stronger hold on the target. What is called kinact is the maximal first-order rate at which the target is inactivated. One may read the kinact/KI as the maximal inactivation rate divided by the concentration that gives half of it. For orientation: Emax means the greatest response seen or fitted, relative to the assay's reference.

T1 sequence (Q96GG9 60-248): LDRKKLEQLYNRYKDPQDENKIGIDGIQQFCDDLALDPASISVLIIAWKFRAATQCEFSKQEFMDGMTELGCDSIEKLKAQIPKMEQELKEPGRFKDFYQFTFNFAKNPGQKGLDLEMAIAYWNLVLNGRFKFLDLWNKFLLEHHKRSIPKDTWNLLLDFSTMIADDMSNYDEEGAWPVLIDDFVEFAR
Chain of DCN1 protein (Q96GG9 whole entry): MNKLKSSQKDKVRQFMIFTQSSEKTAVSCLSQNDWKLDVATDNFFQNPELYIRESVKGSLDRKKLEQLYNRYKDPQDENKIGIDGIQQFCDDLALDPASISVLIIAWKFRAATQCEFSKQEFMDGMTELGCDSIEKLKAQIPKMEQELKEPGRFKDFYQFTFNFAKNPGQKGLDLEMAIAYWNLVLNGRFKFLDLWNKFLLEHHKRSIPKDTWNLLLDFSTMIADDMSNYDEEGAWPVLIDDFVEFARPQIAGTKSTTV
Chain of DCN2 (DCUND2) protein PONY domain (Q6PH85 60-248): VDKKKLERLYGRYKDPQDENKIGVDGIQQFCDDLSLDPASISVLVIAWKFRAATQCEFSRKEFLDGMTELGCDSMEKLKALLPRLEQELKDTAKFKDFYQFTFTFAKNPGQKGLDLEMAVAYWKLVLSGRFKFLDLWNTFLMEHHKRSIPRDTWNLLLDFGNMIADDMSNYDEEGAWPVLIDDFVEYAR

For `C=C(C(=O)NCc1cccc([C@@H]2c3cnn(-c4ccccc4)c3N(CC)C(=O)[C@H]2NC(=O)c2nccc(C(F)(F)F)n2)c1)[C@@H](C)N(C)C1COC1` [Compound I-300], in test [1], the Category result is “irreversible”. Also, the IC50 in test [2] (setting [7]) and in test [2] (setting [8]) was not above 200 nM each time.

Consider `C=C(CN1CCOCC1)C(=O)Nc1cccc([C@@H]2c3cnn(-c4cccc(OCCCN5CCN(C(=O)CCCCCN6/C(=C/C=C/C=C/C7=[N+](C)c8ccc(S(=O)(=O)[O-])cc8C7(C)C)C(C)(C)c7cc(S(=O)(=O)O)ccc76)CC5)c4)c3N(CC)C(=O)[C@H]2NC(=O)c2cccc(C(F)(F)F)c2)c1` [Cy5 probe, 2-((1E,3E)-5-((E)-1-(6-(4-(3-(3-((4R,5S)-7-ethyl-4-(3-(2-(morpholinomethyl)acrylamido)phenyl)-6-oxo-5-(3-(trifluoromethyl)benzamido)-4,5,6,7-tetrahydro-1H-pyrazolo[3,4-b]pyridin-1-yl)phenoxy)propyl)piperazin-1-yl)-6-oxohexyl)-3,3-dimethyl-5-sulfoindolin-2-ylidene)penta-1,3-dien-1-yl)-1,3,3-trimethyl-3H-indol-1-ium-5-sulfonate], for which the EC50 in test [3] is 23.2 nM.

Turning to `C/C=C(\CN1CCN(C2COC2)CC1)C(=O)Nc1cccc([C@@H]2c3cnn(-c4ccccc4)c3N(CC)C(=O)[C@H]2NC(=O)c2ccn(C(F)(F)F)n2)c1` [Compound I-383, N-((4R,5S)-7-ethyl-4-(3-((E)-2-((4-(oxetan-3-yl)piperazin-1-yl)methyl)but-2-enamido)phenyl)-6-oxo-1-phenyl-4,5,6,7-tetrahydro-1H-pyrazolo[3,4-b]pyridin-5-yl)-1-(trifluoromethyl)-1H-pyrazole-3-carboxamide], the Category entry in test [1] was “irreversible”. Also, in test [2] (setting [7]), the IC50 was not above 200 nM. Besides, the IC50 in test [2] (setting [9]) was not above 200 nM. In addition, in test [4], the Ki is more than 0.5 nM, the maximal inactivation rate constant (kinact) lay in the range of 0.00333 to 0.005 s⁻¹ and the kinact/KI fell in the range of 167000 to 3.33e+06 M⁻¹ s⁻¹.

On to `C=C(C(=O)NCc1cccc([C@@H]2c3cnn(-c4ccccc4)c3N(CC)C(=O)[C@H]2NC(=O)c2csc(C(F)(F)F)n2)c1)C(C)N(C)C1COC1` (stereo partly shown) [Compound I-305], for which, in test [1], the Category result is given as “irreversible”. In test [2] (setting [7]), the IC50 was not above 200 nM. Also, in test [2] (setting [8]), the IC50 is not above 200 nM. In addition, in test [4], the Ki is more than 0.5 nM, the kinact is 0.005 to 0.00833 s⁻¹ and the kinact/KI was 167000 to 3.33e+06 M⁻¹ s⁻¹.

`C=C(CN1CCOCC1)C(=O)NC[C@@H](NC(=O)[C@H](Cc1nc2ccc(C(C)C)cc2s1)NC(=O)CC)C1CCCCC1` [DI-1548]: the “effect on CUL3 neddylation” value in test [5] is “reduce CUL3 neddylation”.

For `C=C(CN1CCOCC1)C(=O)NC[C@@H](NC(=O)[C@H](Cc1nc2ccc(C(C)C)cc2s1)NC(=O)CC)C1CCCCC1` [Compound C1, reference compound], in test [4], the inhibition constant Ki is 0.2 to 0.5 nM, the maximal inactivation rate constant (kinact) was in the range of 0.005 to 0.00833 s⁻¹ and the kinact/KI lay in the range of 8.33e+06 to 1.67e+07 M⁻¹ s⁻¹.

As to `CCN1C(=O)[C@H](NC(=O)c2cccc(C(F)(F)F)c2)[C@@H](c2cccc(N3CC=CS3(=O)=O)c2)c2c(C)nn(-c3ccccc3)c21` (racemic) [Compound I-130, rac-N-((4R,5S)-4-(3-(1,1-dioxidoisothiazol-2 (3H)-yl)phenyl)-7-ethyl-3-methyl-6-oxo-1-phenyl-4,5,6,7-tetrahydro-1H-pyrazolo[3,4-b]pyridin-5-yl)-3-(trifluoromethyl)benzamide], the IC50 is 200 to 1000 nM in test [2] (setting [7]) and more than 3000 nM in test [2] (setting [9]). This molecule also returned an Emax in test [6] of 0 to 30%.

In the case of `C=CC(=O)Nc1cccc([C@H]2c3c(C)nn(-c4ccccc4)c3N(CC)C(=O)[C@H]2NC(=O)c2cccc(C(F)(F)F)c2)c1` (racemic) [Compound I-25], the IC50 in test [2] (setting [7]) and in test [2] (setting [9]) was more than 3000 nM throughout. For the same molecule, the Emax in test [6] lay within 0 to 30%.

As for `CCN1C(=O)[C@@H](NC(=O)c2cccc(C(F)(F)F)c2)[C@H](c2cccc(NC(=O)/C=C/CN(C)C)n2)c2cnn(-c3ccccc3)c21` [Compound I-214], the IC50 in test [2] (setting [7]) was not above 200 nM; in test [2] (setting [9]) it was 200 to 1000 nM. Also, the Emax in test [6] lay in the range of 80 to 100%.

`CCN1CC=C(C(=O)Nc2cccc([C@@H]3c4c(C)nn(-c5ccccc5)c4N(CC)C(=O)[C@H]3NC(=O)c3nccc(C(F)(F)F)n3)c2)C1` [Compound I-225]: in test [2] (setting [9]), the IC50 lay within 200 to 1000 nM. This molecule showed an Emax in test [6] of 80 to 100%.

As for `C=C(CN1CCOCC1)C(=O)Nc1cccc([C@H]2c3c(C)nn(-c4ccccc4)c3N(CC)C(=O)[C@@H]2NC(=O)c2cccc(C(F)(F)F)c2)c1` (racemic) [Compound I-9, N-[rac-(4S,5R)-7-ethyl-3-methyl-4-[3-[2-(morpholinomethyl)prop-2-enoylamino]phenyl]-6-oxo-1-phenyl-4,5-dihydropyrazolo[3,4-b]pyridin-5-yl]-3-(trifluoromethyl)benzamide], the IC50 in test [2] (setting [7]) and in test [2] (setting [9]) was not above 200 nM each time. Moreover, the Emax in test [6] lay within 80 to 100%.

With `C=C(CN1CCC1)C(=O)NCc1cccc([C@@H]2c3cnn(-c4ccccc4)c3N(CC)C(=O)[C@H]2NC(=O)c2cccc(C(F)(F)F)c2)c1` [Compound I-1], the half-maximal inhibitory concentration (IC50) in test [2] (setting [7]) and in test [2] (setting [8]) was not above 200 nM in each case. The Emax in test [6] was 80 to 100%.

Take `CCN1C(=O)[C@@H](NC(=O)c2cccc(C(F)(F)F)c2)[C@H](c2cccc(NC(=O)C3=C(C(=O)OC)CC3)c2)c2c(C)nn(-c3ccccc3)c21` [Compound I-34]: the IC50 in test [2] (setting [7]) and in test [2] (setting [8]) was not above 200 nM each time. This molecule also registered an Emax in test [6] of 80 to 100%.
